Data reported in patent publication US20240368151A1, “NOVEL ERGOLINES AND METHODS OF TREATING MOOD DISORDERS” (priority 2021, published 2024).

Legend:
5-HT2B receptor = 5-HT2B receptor (Homo sapiens (Human), UniProt P41595); experiment: FLIPR Ca^2+ flux agonist assay at 5-HT2B; type: cell-based; details: HEK293
Procedure, shortened: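 Agonist-induced calcium flux was measured on FLIPR Tetra in stable HEK293 cells for 5-HT2A and 5-HT2B, and in stable CHO cells for 5-HT1A. Cells were loaded with Fluo-4 Direct dye and 2.5 mM probenecid for 50 min at 37 °C before compound addition and fluorescence reading.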

Sprague Dawley rats = experiment: Forced swim test (FST) in rats; type: in vivo, rat; details: for Time Immobile / efficacy in FST relative to positive control desipramine, in words: rat FST; for Time Immobile: 23.5 hours after a single dose; for efficacy in FST relative to positive control desipramine, in words: 0.032 mg/kg
Experimental: Compound 1 induced antidepressant-like effects in the forced swim test (FST) in rats with a 23.5-h pre-treatment time (FIG. 2).
Animals. Male Sprague Dawley rats, aged 9-10 weeks, were used in this experiment. Animals were housed in groups of 2 under controlled temperature (22±3° C.) and relative humidity (30-70%) conditions, with 12-hour light/dark cycles, and with ad libitum food and water. This study was carried out in strict accordance with the requirements of the Committee for the Purpose of Control and Supervision of Experiments on Animals (CPCSEA), India. All efforts were made to minimize suffering.
Drugs and Drug Administration. Compound 1 was synthesized as described above. Desipramine HCl was commercially obtained. The test compound, saline vehicle, and the positive control desipramine were administered subcutaneously (SC), with doses calculated based on the freebase. Normal saline was used as the vehicle. All compounds were administered at a volume of 5 mL/kg. The test compound and vehicle were administered 0.5 h after the start of the training swim (Swim 1) and 23.5 h before the test swim (Swim 2). Desipramine was administered 3 times, at 23.5 h, 5 h, and 1 h before the test swim (Swim 2), each time at a dose of 20 mg/kg. Group size was n=10 per treatment.
Forced Swim Test (FST). […] Rats were handled for about 2 min daily for the 5 days prior to the beginning of the experimental procedure. On the first day of the experiment (i.e., Day 0), post randomization, training swim sessions (Swim 1) were conducted between 12:00 and 18:00 h with all animals by placing rats in individual glass cylinders (46 cm tall×20 cm in diameter) containing 23-25° C. water 30 cm deep for 15 minutes. At the conclusion of Swim 1, animals were dried with paper towels, placed in heated drying cages for 15 minutes, and then returned to their home cages. Animals were then administered the appropriate drug or vehicle treatment(s), as described above. For clarity, a compound administration time of 23.5 h before Swim 2 means 0.5 h after the start of Swim 1 and 0.25 h after the completion of Swim 1 (i.e., immediately after return to the home cage). On Day 1 (i.e., 24 h after start of Swim 1), animals performed the test swim (Swim 2) for a period of 5 min but otherwise under the same conditions as Swim 1. During all swim sessions, the water was changed between each animal.
Behavioral scoring was conducted by observers who were blind to the treatment groups. Animals were continuously observed during Swim 2 and the total time spent engaging in the following behaviors was recorded: immobile, swimming, and climbing. A rat was judged to be immobile when it remained floating in the water without struggling and was making only those movements necessary to keep its head above water. A rat was judged to be swimming when it made active swimming motions, more than necessary to merely maintain its head above water (e.g., moving around in the cylinder). A rat was judged to be climbing when it made active movements with its forepaws in and out of the water, usually directed against the walls.
Statistical Analysis. The data points shown represent the mean±standard error of the mean (SEM). Analysis was performed using GraphPad Prism 6. Comparisons between groups were performed using the one-way analysis of variance (ANOVA), followed by Dunnett's test for comparisons to vehicle.
Additional disclosed compounds were tested in the forced swim test (FST) in rats according to the procedure described in Example 35.

Alpha1A receptor = Alpha1A receptor (Homo sapiens (Human), UniProt P35348); experiment: FLIPR Ca^2+ flux agonist assay at Alpha1A; type: cell-based
Sequence of Alpha1A receptor (P35348 whole entry, looked up): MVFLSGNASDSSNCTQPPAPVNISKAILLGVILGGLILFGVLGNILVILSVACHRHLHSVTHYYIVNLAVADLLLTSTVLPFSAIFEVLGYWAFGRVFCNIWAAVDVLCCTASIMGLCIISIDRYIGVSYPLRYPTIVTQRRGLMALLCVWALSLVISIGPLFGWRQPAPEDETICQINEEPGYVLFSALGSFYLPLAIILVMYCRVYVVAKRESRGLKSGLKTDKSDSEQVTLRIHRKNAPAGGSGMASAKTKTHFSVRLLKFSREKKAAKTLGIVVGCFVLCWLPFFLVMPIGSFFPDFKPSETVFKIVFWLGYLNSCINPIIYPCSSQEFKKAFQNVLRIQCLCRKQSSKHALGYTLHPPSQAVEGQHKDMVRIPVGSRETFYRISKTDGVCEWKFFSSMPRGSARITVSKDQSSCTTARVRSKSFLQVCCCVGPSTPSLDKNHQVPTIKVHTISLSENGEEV
Experimental: Disclosed compounds were tested for agonist activity at several adrenergic (Alpha1A and Alpha2A) and dopamine (D1 and D2) receptor subtypes using Ca^2+ flux functional assays, with the results summarized in Table 6. Selectivity for the 5-HT2A receptor over these other targets varied depending on the specific target and compound.
Functional Assays at Adrenergic and Dopamine Receptors. Agonist activity at Alpha1A, Alpha2A, D1, and D2 receptors was determined using a FLIPR Ca^2+ flux assay at WuXi AppTec (Hong Kong) Limited according to their standard protocols. Briefly, stably transfected cells expressing the receptor of interest were grown and plated in a 384 well plate and incubated at 37° C. and 5% CO2 overnight. A solution of 250 mM probenecid in 1 mL FLIPR assay buffer was prepared fresh. This was combined with a fluorescent dye (Fluo-4 Direct™) to make a final assay concentration of 2.5 mM. Compounds were diluted 1:3.16 for 10 points and 750 nL was added to a 384 well compound plate using ECHO along with 30 μL assay buffer. The fluorescent dye was then added to the assay plate along with assay buffer to a final volume of 40 μL. The cell plate was incubated for 50 min at 37° C. and 5% CO2 and placed into the FLIPR Tetra along with the compound plate. 10 μL of references and compounds were then transferred from the compound plate into the cell plate and the fluorescent signal was read.

[1] = Metabolic stability in rat liver microsomes (RLM); type: in vitro ADME; details: both sexes, rat, pooled rat liver microsomes, pH 7.4, NADPH
5-HT1B receptor = 5-HT1B receptor (Homo sapiens (Human), UniProt P28222); experiment: cAMP accumulation agonist assay at 5-HT1B; type: cell-based
Sequence of 5-HT1B receptor (P28222 whole entry, looked up): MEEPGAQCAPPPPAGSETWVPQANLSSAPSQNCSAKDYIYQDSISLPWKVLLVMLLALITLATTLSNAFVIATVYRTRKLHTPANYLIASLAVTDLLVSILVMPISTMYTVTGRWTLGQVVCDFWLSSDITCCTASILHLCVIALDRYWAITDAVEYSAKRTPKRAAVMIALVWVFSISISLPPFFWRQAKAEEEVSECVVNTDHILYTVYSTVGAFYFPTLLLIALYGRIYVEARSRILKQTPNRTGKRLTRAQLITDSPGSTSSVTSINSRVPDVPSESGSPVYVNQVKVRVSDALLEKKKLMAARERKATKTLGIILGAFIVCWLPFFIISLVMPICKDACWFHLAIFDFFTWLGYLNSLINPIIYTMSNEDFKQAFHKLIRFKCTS
Experimental: Functional Assay at 5-HT1B. Agonist activity at 5-HT1B was determined using a cAMP accumulation protocol at WuXi AppTec (Hong Kong) Limited according to their standard protocols. Briefly, stably transfected cells were plated in an OptiPlate-384 well plate, incubated at RT for 60 mins, and cAMP standard solution (800 nM, 10 μL) was added to the blank well. Then, 10 μL detection reagent was added to each well, the plate incubated for 60 mins at RT, and the plate read using EnVision.

Sequence of 5-HT2B receptor (P41595 whole entry, looked up): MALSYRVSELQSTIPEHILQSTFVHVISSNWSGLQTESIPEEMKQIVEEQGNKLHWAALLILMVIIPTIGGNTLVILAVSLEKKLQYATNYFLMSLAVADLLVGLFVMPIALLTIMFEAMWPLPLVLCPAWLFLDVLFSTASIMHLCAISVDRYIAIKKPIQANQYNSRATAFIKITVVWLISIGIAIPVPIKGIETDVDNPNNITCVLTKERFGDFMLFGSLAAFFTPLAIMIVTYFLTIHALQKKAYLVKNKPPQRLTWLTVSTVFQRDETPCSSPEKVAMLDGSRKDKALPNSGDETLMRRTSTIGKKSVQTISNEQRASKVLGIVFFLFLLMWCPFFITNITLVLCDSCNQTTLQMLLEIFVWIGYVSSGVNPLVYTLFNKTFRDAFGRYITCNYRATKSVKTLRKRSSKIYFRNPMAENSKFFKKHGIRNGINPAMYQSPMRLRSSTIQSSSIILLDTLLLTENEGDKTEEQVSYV

Row | SMILES | 5-HT2B % Act @ Max Dose (5-HT2B receptor) | Time Immobile (Sprague Dawley rats; 0.01 mg/kg SC) | Time Immobile (Sprague Dawley rats; 0.032 mg/kg SC) | efficacy in FST relative to positive control desipramine, in words (Sprague Dawley rats; SC) | Time Immobile (Sprague Dawley rats; 0.32 mg/kg SC) | Alpha 1A % Act @ Max Dose (Alpha1A receptor) | half-life at 1 μM [1] | 5-HT1B % Act @ Max Dose (5-HT1B receptor) | immobility time relative to vehicle control, in words (Sprague Dawley rats; rats, SC, 23.5 hours after a single administration) | agonist efficacy at Alpha1A, in words (Alpha1A receptor)
1 | CCCN1C[C@H](C(=O)N2[C@@H](C)C[C@@H]2C)C=C2c3cccc4[nH]cc(c34)C[C@H]21 [Compound 4, ((2S,4S)-2,4-dimethylazetidin-1-yl)((6aR,9R)-7-propyl-4,6,6a,7,8,9-hexahydroindolo[4,3-fg]quinolin-9-yl)methanone] | 87.46% | 110.4 s | 68.89 s | as efficacious as the positive control desipramine | 117.9 s | 118.64% | 12.8 min | 96% | – | –
2 | CCN(CC)C(=O)[C@@H]1C=C2c3cccc4[nH]cc(c34)C[C@H]2N(CCCF)C1 [Compound 2, (6aR,9R)-N,N-diethyl-7-(3-fluoropropyl)-4,6,6a,7,8,9-hexahydroindolo[4,3-fg]quinoline-9-carboxamide] | 101.16% | – | 76.44 s | as efficacious as the positive control desipramine | 41.33 s | 109.68% | 12 min | 89.97% | – | –
3 | CCCN1C[C@H](C(=O)N[C@H](C)CC)C=C2c3cccc4[nH]cc(c34)C[C@H]21 [Compound 3, (6aR,9R)-N-((R)-sec-butyl)-7-propyl-4,6,6a,7,8,9-hexahydroindolo[4,3-fg]quinoline-9-carboxamide] | 94.11% | – | 137.5 s | – | 50.4 s | 124.7% | 4.4 min | 98.66% | – | –
4 | CCCN1C[C@H](C(=O)NC(CC)CC)C=C2c3cccc4[nH]cc(c34)C[C@H]21 [Compound 6, (6aR,9R)-N-(pentan-3-yl)-7-propyl-4,6,6a,7,8,9-hexahydroindolo[4,3-fg]quinoline-9-carboxamide] | 92.93% | – | 93.6 s | – | 76.6 s | – | 1.66 min | 94.62% | – | –
5 | CCCN1C[C@H](C(=O)N(CC)CC)C=C2c3cccc4[nH]cc(c34)C[C@H]21 [Compound 1, (6aR,9R)-N,N-diethyl-7-propyl-4,6,6a,7,8,9-hexahydroindolo[4,3-fg]quinoline-9-carboxamide] | 103.75% | – | 161.6 s | – | 68.2 s | 80.6% | 16.2 min | 96.6% | reduced immobility time | –
6 | CCN(CC)C(=O)[C@@H]1C=C2c3cccc4[nH]cc(c34)C[C@H]2N(CCc2ccccc2OC)C1 [Compound 11, (6aR,9R)-N,N-diethyl-7-(2-methoxyphenethyl)-4,6,6a,7,8,9-hexahydroindolo[4,3-fg]quinoline-9-carboxamide] | 2.5% | – | – | – | – | 28.23% | 1.16 min | 47.01% | – | very low efficacy agonists
7 | CCN(CC)C(=O)[C@@H]1C=C2c3cccc4[nH]cc(c34)C[C@H]2N(Cc2ccccc2OC)C1 [Compound 10, (6aR,9R)-N,N-diethyl-7-(2-methoxybenzyl)-4,6,6a,7,8,9-hexahydroindolo[4,3-fg]quinoline-9-carboxamide] | 2.005% | – | – | – | – | 26.56% | 3.4 min | 87.29% | – | very low efficacy agonists
